{"source": "patent US20120277147A1", "about": "“PREVENTION OF HYPOGLYCAEMIA IN DIABETES MELLITUS TYPE 2 PATIENTS” (priority 2011, published 2012)", "origin": "cited, not measured here", "system": "patients with type 2 diabetes treated with metformin and a sulfonylurea", "conditions": "30 week; patients unable to achieve adequate glycemic control with combined metformin-sulfonylurea therapy"}
{"substance": "Exendin-4: native exendin peptide, SEQ ID NO: 2 (39 AS), which can lower blood glucose concentration", "values": [{"measurement": "Effect on HbA1c", "result": "significantly reduced HbA1c"}]}
